Reference: ChEMBL document CHEMBL4507286 (2021)

Experiments:
[1] = target: Tyrosine-protein kinase FRK (Homo sapiens) (UniProt P42685)
[2] = target: Serine/threonine-protein kinase PLK3 (Homo sapiens) (UniProt Q9H4B4)
[3] = target: Serine/threonine-protein kinase DCLK2 (Homo sapiens) (UniProt Q8N568)
[4] = target: Serine/threonine-protein kinase WNK3 (Homo sapiens) (UniProt Q9BYP7)
[5] = target: Myosin-IIIb (Homo sapiens) (UniProt Q8WXR4)
[6] = system: Receptor-type tyrosine-protein kinase FLT3 (Homo sapiens), P36888 [R834Q]
[7] = target: Ribosomal protein S6 kinase alpha-4 (Homo sapiens) (UniProt O75676)
[8] = target: Interleukin-1 receptor-associated kinase 4 (Homo sapiens) (UniProt Q9NWZ3)
[9] = target: Serine/threonine-protein kinase haspin (Homo sapiens) (UniProt Q8TF76)
[10] = target: Serine/threonine-protein kinase BRSK2 (Homo sapiens) (UniProt Q8IWQ3)
[11] = target: Receptor-interacting serine/threonine-protein kinase 4 (Homo sapiens) (UniProt P57078)
[12] = target: Cyclin-dependent kinase-like 3 (Homo sapiens) (UniProt Q8IVW4)
[13] = target: Tyrosine-protein kinase ITK/TSK (Homo sapiens) (UniProt Q08881)
[14] = target: 5-hydroxytryptamine receptor 2C (Homo sapiens) (UniProt P28335); settings: Compound concentration 10.0 uM
[15] = target: Homeodomain-interacting protein kinase 4 (Homo sapiens) (UniProt Q8NE63)
[16] = system: Phosphatidylinositol 4,5-bisphosphate 3-kinase catalytic subunit alpha isoform (Homo sapiens), P42336 [I800L]
Chain of Phosphatidylinositol 4,5-bisphosphate 3-kinase catalytic subunit alpha isoform (Homo sapiens), P42336 [I800L] (P42336 whole entry I800L, canonical isoform): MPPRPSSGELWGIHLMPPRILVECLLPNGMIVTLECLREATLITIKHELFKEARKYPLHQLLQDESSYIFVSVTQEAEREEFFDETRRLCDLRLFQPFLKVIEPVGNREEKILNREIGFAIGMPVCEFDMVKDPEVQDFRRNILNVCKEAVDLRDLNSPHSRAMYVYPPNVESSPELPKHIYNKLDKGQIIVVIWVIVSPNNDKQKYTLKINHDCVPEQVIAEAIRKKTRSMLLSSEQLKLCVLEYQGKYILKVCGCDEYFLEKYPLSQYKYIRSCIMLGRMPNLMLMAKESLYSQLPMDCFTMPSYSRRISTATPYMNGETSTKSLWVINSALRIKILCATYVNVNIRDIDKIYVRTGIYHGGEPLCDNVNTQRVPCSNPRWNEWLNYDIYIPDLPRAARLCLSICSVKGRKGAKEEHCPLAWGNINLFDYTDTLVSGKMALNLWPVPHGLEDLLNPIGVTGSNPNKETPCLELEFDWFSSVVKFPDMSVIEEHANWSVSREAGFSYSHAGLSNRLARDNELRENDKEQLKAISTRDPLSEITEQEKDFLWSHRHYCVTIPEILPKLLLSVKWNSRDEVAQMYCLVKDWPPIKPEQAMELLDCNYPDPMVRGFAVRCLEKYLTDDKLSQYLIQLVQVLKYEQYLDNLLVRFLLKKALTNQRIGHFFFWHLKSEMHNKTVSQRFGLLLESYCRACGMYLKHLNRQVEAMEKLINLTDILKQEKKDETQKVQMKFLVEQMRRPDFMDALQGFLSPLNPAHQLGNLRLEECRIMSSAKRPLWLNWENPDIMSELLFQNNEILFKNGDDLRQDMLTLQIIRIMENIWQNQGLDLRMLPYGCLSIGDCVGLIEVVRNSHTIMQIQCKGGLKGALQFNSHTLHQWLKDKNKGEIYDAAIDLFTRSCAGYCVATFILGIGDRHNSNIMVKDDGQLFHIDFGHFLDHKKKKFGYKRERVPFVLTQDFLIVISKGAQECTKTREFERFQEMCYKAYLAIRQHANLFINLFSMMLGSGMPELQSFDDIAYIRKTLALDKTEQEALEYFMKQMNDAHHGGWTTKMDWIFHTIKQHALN

[17] = target: Serine/threonine-protein kinase N1 (Homo sapiens) (UniProt Q16512)
[18] = target: Serine/threonine-protein kinase WNK4 (Homo sapiens) (UniProt Q96J92)
Chain of Serine/threonine-protein kinase WNK4 (Homo sapiens) (Q96J92 whole entry): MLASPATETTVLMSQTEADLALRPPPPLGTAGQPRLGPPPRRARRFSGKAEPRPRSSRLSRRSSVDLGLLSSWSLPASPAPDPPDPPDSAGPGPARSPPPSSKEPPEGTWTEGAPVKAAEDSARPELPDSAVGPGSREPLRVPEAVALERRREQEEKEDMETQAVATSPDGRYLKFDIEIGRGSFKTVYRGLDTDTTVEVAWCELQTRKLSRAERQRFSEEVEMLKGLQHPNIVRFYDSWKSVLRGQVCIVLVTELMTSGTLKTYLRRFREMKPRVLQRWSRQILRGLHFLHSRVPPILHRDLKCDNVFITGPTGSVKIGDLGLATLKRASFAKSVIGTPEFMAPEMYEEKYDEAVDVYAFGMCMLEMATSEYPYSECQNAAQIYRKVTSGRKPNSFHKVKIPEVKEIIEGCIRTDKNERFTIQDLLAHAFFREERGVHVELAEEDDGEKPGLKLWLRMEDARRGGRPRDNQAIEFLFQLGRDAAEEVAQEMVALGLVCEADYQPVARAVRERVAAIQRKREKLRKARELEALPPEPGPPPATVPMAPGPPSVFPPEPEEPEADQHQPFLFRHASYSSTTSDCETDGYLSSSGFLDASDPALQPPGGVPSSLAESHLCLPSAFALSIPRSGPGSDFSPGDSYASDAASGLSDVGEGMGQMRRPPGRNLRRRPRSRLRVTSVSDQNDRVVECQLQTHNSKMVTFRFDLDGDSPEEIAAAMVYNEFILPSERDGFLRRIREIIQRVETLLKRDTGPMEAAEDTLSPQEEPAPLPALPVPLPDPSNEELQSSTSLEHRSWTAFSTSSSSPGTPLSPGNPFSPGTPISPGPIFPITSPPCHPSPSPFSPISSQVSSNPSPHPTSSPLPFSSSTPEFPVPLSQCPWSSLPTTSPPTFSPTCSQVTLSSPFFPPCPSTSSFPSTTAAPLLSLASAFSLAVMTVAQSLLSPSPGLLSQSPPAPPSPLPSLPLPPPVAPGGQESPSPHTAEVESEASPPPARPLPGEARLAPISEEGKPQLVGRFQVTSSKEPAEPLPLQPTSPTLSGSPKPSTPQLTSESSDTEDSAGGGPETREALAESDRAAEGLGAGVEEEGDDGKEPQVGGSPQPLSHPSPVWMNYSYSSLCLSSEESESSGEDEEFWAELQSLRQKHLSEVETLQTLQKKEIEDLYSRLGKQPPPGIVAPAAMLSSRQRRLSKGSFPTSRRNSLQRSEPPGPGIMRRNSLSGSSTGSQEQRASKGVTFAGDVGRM

[19] = target: Myotonin-protein kinase (Homo sapiens) (UniProt Q09013)
[20] = target: Dual specificity mitogen-activated protein kinase kinase 6 (Homo sapiens) (UniProt P52564)
[21] = target: Serine/threonine-protein kinase MARK2 (Homo sapiens, UniProt Q7KZI7)
[22] = target: Serine/threonine-protein kinase D1 (Homo sapiens) (UniProt Q15139)
[23] = target: Serine/threonine-protein kinase 32C (Homo sapiens) (UniProt Q86UX6)
[24] = target: Citron Rho-interacting kinase (Homo sapiens) (UniProt O14578)
[25] = target: Mast/stem cell growth factor receptor Kit (Homo sapiens) (UniProt P10721)
[26] = target: Homeodomain-interacting protein kinase 2 (Homo sapiens) (UniProt Q9H2X6)
[27] = target: Casein kinase I isoform delta (Homo sapiens) (UniProt P48730)
Chain of Casein kinase I isoform delta (Homo sapiens) (P48730 whole entry, looked up, canonical isoform): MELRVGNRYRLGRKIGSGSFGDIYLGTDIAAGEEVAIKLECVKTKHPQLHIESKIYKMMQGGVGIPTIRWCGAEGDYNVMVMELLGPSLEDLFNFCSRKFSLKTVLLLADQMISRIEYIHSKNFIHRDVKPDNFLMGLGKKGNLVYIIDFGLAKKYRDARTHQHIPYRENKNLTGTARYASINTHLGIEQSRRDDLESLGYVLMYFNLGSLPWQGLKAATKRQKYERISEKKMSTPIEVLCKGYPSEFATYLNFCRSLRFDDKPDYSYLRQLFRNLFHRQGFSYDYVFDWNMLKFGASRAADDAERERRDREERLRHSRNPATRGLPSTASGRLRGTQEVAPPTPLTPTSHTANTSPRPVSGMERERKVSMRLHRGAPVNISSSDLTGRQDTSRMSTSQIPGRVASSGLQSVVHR

[28] = target: cGMP-dependent protein kinase 1 (Homo sapiens) (UniProt Q13976)
[29] = target: Serine/threonine-protein kinase 35 (Homo sapiens) (UniProt Q8TDR2)
[30] = system: Epidermal growth factor receptor (Homo sapiens), P00533 [T790M]
[31] = target: Casein kinase I isoform alpha-like (Homo sapiens) (UniProt Q8N752)
[32] = system: Tyrosine-protein kinase ABL1 (Homo sapiens), P00519 [Q252H]
[33] = target: Dual specificity mitogen-activated protein kinase kinase 2 (Homo sapiens) (UniProt P36507)
[34] = target: Peripheral plasma membrane protein CASK (Homo sapiens) (UniProt O14936)
[35] = system: Leucine-rich repeat serine/threonine-protein kinase 2 (Homo sapiens), Q5S007 [G2019S]
[36] = target: Tyrosine-protein kinase receptor UFO (Homo sapiens) (UniProt P30530)
Chain of Tyrosine-protein kinase receptor UFO (Homo sapiens) (P30530 whole entry): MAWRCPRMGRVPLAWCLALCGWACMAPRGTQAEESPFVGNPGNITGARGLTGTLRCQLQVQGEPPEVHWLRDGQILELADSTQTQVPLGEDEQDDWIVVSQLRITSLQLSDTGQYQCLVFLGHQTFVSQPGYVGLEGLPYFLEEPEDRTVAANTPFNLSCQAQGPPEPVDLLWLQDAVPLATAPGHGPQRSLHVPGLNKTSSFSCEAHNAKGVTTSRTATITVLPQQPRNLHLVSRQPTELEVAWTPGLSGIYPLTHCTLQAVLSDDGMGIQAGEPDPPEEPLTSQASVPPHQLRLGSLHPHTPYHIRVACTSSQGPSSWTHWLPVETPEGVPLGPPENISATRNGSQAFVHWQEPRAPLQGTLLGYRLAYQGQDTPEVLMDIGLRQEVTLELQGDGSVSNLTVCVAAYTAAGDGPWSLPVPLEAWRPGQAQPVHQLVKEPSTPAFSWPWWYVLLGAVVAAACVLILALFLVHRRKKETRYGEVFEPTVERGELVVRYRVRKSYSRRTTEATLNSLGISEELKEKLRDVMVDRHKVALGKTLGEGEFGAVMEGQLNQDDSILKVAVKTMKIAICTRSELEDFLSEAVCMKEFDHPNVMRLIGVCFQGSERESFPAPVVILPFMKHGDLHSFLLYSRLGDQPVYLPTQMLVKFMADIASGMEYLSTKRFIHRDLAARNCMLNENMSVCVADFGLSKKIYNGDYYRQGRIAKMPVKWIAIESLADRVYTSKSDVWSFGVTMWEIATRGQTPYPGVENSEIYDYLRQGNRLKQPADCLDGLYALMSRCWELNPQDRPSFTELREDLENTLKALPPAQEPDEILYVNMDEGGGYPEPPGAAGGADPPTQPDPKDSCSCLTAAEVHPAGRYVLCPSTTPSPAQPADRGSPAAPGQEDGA

[37] = target: Tyrosine-protein kinase Fer (Homo sapiens) (UniProt P16591)
[38] = target: Receptor-interacting serine/threonine-protein kinase 2 (Homo sapiens) (UniProt O43353)
[39] = target: Dual specificity protein kinase CLK4 (Homo sapiens, UniProt Q9HAZ1)
[40] = target: Mitogen-activated protein kinase 4 (Homo sapiens) (UniProt P31152)
[41] = target: cGMP-dependent protein kinase 2 (Homo sapiens) (UniProt Q13237)
[42] = target: Tyrosine-protein kinase JAK3 (Homo sapiens) (UniProt P52333)
[43] = system: Tyrosine-protein kinase ABL1 (Homo sapiens), P00519 [T315I]
[44] = target: MAP/microtubule affinity-regulating kinase 4 (Homo sapiens) (UniProt Q96L34)
[45] = target: Receptor tyrosine-protein kinase erbB-2 (Homo sapiens) (UniProt P04626)
[46] = Compound concentration 1000.0 nM
[47] = Compound concentration 100.0 nM

Chain of Tyrosine-protein kinase FRK (Homo sapiens) (P42685 whole entry): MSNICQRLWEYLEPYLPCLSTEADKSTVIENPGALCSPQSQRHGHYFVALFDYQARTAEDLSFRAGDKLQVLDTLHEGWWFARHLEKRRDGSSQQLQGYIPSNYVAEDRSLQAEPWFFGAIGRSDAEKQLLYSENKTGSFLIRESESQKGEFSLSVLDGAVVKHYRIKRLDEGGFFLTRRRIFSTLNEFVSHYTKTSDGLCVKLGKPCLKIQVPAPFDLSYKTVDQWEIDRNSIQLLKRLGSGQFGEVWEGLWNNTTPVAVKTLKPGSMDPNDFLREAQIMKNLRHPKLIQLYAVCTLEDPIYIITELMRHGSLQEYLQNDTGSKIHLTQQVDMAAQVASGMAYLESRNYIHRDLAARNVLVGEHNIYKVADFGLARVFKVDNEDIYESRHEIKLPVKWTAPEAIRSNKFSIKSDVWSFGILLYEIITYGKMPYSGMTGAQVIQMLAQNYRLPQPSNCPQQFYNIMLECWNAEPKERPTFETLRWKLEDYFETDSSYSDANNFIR
Chain of Serine/threonine-protein kinase PLK3 (Homo sapiens) (Q9H4B4 whole entry, looked up): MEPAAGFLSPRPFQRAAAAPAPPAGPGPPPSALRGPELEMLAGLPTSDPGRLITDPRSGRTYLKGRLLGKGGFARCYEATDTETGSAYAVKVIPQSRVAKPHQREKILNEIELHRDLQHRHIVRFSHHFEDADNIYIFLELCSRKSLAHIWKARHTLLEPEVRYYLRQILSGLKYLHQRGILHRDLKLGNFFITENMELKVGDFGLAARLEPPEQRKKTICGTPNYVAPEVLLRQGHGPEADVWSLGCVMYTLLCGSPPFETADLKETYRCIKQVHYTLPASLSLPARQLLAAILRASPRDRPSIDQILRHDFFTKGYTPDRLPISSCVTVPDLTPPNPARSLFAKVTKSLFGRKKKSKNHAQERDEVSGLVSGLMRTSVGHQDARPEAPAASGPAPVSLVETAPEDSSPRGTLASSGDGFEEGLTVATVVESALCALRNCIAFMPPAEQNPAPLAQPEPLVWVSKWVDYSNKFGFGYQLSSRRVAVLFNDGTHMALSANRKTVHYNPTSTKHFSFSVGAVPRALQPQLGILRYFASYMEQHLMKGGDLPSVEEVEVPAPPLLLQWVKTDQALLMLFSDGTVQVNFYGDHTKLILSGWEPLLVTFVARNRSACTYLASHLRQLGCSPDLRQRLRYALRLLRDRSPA

C[C@H](NC(=O)Nc1cc2[nH]ncc2c(CO)n1)c1ccccn1 [ERKi-NC]
residual activity [1, 46]: 100%
residual activity [2, 46]: 68.7%
residual activity [3, 46]: 100%
residual activity [4, 46]: 100%
residual activity [5, 46]: 67.6%
residual activity [6, 46]: 94.5%
residual activity [7, 46]: 100%
residual activity [8, 46]: 100%
residual activity [9, 46]: 72.1%
residual activity [10, 46]: 88%
residual activity [11, 46]: 100%
residual activity [12, 46]: 100%
residual activity [13, 46]: 100%
inhibition [14]: 13.6%
residual activity [15, 46]: 100%
residual activity [16, 46]: 99.5%
residual activity [17, 46]: 93.1%
residual activity [18, 46]: 100%
residual activity [19, 46]: 100%
residual activity [20, 46]: 100%
residual activity [21, 46]: 100%
residual activity [22, 46]: 89.4%
residual activity [23, 46]: 74%
residual activity [24, 46]: 99.9%
residual activity [25, 46]: 71.5%
residual activity [26, 46]: 83.9%
residual activity [27, 46]: 100%
residual activity [28, 46]: 90.7%
residual activity [29, 46]: 100%
residual activity [30, 46]: 100%
residual activity [31, 46]: 100%
residual activity [32, 46]: 100%
residual activity [33, 46]: 90.7%
residual activity [34, 46]: 60.8%
residual activity [35, 46]: 88.8%
residual activity [36, 46]: 100%
residual activity [37, 46]: 88.8%
residual activity [38, 46]: 77%
residual activity [39, 46]: 78.8%
residual activity [40, 46]: 84.7%
residual activity [41, 46]: 100%
residual activity [42, 46]: 100%
residual activity [43, 46]: 94.4%
residual activity [44, 46]: 100%
residual activity [45, 46]: 100%

C[C@@H](NC(=O)Nc1cc2[nH]ncc2c(CO)n1)c1ccccc1 [ERKi]
residual activity [1, 47]: 82.2%
residual activity [2, 47]: 89%
residual activity [3, 47]: 97.7%
residual activity [4, 47]: 47.3%
residual activity [5, 47]: 82.5%
residual activity [6, 47]: 56.8%
residual activity [7, 47]: 94.5%
residual activity [8, 47]: 76.1%
residual activity [9, 47]: 53.7%
residual activity [10, 47]: 89.3%
residual activity [11, 47]: 76%
residual activity [12, 47]: 95.6%
residual activity [13, 47]: 83.2%
inhibition [14]: 26.3%
residual activity [15, 47]: 77.5%
residual activity [16, 47]: 66%
residual activity [17, 47]: 89.3%
residual activity [18, 47]: 100%
residual activity [19, 47]: 80.5%
residual activity [20, 47]: 81.4%
residual activity [21, 47]: 100%
residual activity [22, 47]: 100%
residual activity [23, 47]: 100%
residual activity [24, 47]: 100%
residual activity [25, 47]: 89.5%
residual activity [26, 47]: 85.6%
residual activity [27, 47]: 84.7%
residual activity [28, 47]: 52.4%
residual activity [29, 47]: 91.1%
residual activity [30, 47]: 82.1%
residual activity [31, 47]: 79.8%
residual activity [32, 47]: 67.8%
residual activity [33, 47]: 84.8%
residual activity [34, 47]: 89.7%
residual activity [35, 47]: 82.7%
residual activity [36, 47]: 77.9%
residual activity [37, 47]: 100%
residual activity [38, 47]: 90.3%
residual activity [39, 47]: 66.6%
residual activity [40, 47]: 98.3%
residual activity [41, 47]: 76.1%
residual activity [42, 47]: 64.5%
residual activity [43, 47]: 100%
residual activity [44, 47]: 96%
residual activity [45, 47]: 100%
